From US20240343761A1, “APELINERGIC MACROCYCLES AND USES THEREOF” (priority 2021, published 2024) come the findings set out here.

Read-outs that look alike come from different tables or passages of the source. Bridge positions count the residues as written; N and C are the ends. Square brackets hold non-standard residues; d marks the D form. Ends that are not written are not given here. d1Nal = N[C@H](Cc1cccc2ccccc12)C(=O)O; AllylGly = C=CC[C@H](N)C(=O)O

Series [1] concerns the target T1, hAPJ receptor (Homo sapiens, UniProt P35414).
T1 construct: expressed in transfected cells; host or cells: HEK293, transient transfection with PEI
T1 sequence (P35414 1-380): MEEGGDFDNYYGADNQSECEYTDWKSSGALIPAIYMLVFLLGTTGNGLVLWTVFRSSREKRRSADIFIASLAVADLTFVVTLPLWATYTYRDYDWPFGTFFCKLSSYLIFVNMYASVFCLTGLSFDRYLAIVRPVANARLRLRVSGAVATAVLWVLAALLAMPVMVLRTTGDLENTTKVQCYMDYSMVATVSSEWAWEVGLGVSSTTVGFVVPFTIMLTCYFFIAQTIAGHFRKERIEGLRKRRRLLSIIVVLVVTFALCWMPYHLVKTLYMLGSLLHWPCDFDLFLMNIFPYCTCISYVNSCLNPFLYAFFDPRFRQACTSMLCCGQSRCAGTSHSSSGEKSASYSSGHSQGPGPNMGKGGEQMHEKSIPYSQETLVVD
In words: BRET-based Gαi1 activation assay in HEK293 cells. The series is classed as cell-based. Summed up:
(§1)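 HEK293 cells in HBSS stimulated with analogs from 10^−5 to 10^−11 M, 5 min at 37 °C (Gαi1) or 30 min at room temperature (β-arrestin2).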
(In general: Bioluminescence resonance energy transfer reports proximity on the nanometre scale.)

Series [2] concerns the target T1, hAPJ receptor. In words: BRET-based β-arrestin2 recruitment assay in HEK293 cells. The settings on record: for Emax: HEK293. The series is classed as cell-based. Summed up: as §1
The nature of series [3]: Rat plasma stability (half-life in vitro). The series is classed as in vitro ADME. The settings on record: male, Sprague-Dawley, rat, plasma, rat plasma. Summed up: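 Peptides (1 mM solution, 6 μL) incubated with 27 μL heparinised male Sprague-Dawley rat plasma at 37 °C with shaking, then filtered and analysed by UPLC.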
The nature of the next series: in vivo. The procedure: Male Sprague-Dawley rats of 8-10 weeks were used in this study. […] Animals were placed in a containment chamber prior to i.v. injection to facilitate blood sampling. […] Those samples were immediately stored on crushed ice before being centrifuged at 13000 rpm for 5 min at 4° C. to isolate plasma (upper layer). The resultant plasma was transferred to polypropylene tubes, and immediately frozen at −80° C.
A combination of a protein precipitation and a solid phase extraction step were used to extract the peptides. Plasma sample was defrosted on ice. After vortex agitation (60 s), 100 μL sample was withdraw and 300 μL cold acetonitrile was added to precipitate the plasma proteins. The sample was then vortex (60 s) and centrifuged at 4500 rpm at 4° C. during 10 min. The supernatant was then isolated and directly pass through an HLB prime for additional clean up. The filtrate was diluted 10 times in 0.1% formic acid/water and filtered through a 0.22 μm syringe filter before LC/MS/MS analysis.
Samples were analyzed on a Sciex Qtrap 6500+ equipped with a microflow liquid chromatography (Eksigient M3 microflow) and a UPLC HSS-T3 column (1 mm×100 mm, 1.8 μm, equipped with a 0.2 μm fritted pre-filter). The solvent flow rate was set to 50 μL/min, the column temperature was kept at 40° C. and the injection volume was 3 μL. The mobile phase was 0.1% formic acid/water (A) and 0.1% formic acid/acetonitrile (B). The elution gradient starts with 2% of eluent B, increasing to 95% in 8 min, maintaining at 95% for 2 min and then back to initial conditions in 2 min for a total run time of 13 min. […] Analysis used two daughter traces (transitions), among them, the most abundant was for quantification and the second most abundant for confirmation.

The subject of series [4] is anesthetized male Sprague-Dawley rats. The experiment in a line: In vivo blood pressure measurement. The settings on record: i.v. bolus, doses 19.6 and 65 nmol/kg. Further details: species or system rat. On the procedure: The animal experimental protocols were approved by the Animal Care Committee of Université de Sherbrooke and complied with policies and directives of the Canadian Council on Animal Care.
Male Sprague-Dawley rats (8-10 weeks of age) were anesthetized with ketamine/xylazine injection (87/13 mg/kg i.m.) and placed in supine position on a thermostatic pad. Their right carotid artery was catheterized with PE 50 (filled with heparinized saline), connected to a Micro-Med transducer (model TDX-300, Calabasas, USA) and Micro-Med blood pressure analyzer (model BPA-100c). […] This i.v. catheter was flushed with saline (0.2 mL) immediately after each injection.

Another series has as its system Sprague-Dawley rats. In words: Echocardiography (cardiac performance) after s.c. injection.
Series [5] addresses human APJ (transfected HEK293 cells, Gαi1 BRET assay) (human) (UniProt P35414). In words: cell-based or functional assay.
Series [6] deals with T2, YFP-tagged human APJ receptor (human, UniProt P35414 1-380).
T2 construct: whole, on cells; also called hAPJ; APJ WT; not shown: YFP tag
T2 sequence (looked up): T1 sequence (P35414 1-380)
In words: competitive radioligand binding, HEK293-hAPJ membranes.

Series [7] addresses T3, human APJ (transfected HEK293 cells, Gαi1 BRET assay) (human, UniProt P35414 1-380).
T3 sequence (looked up): T1 sequence (P35414 1-380)
The experiment in a line: cell-based or functional assay.

[8] abbreviates: male, Sprague-Dawley, rat, plasma, iv, 3 mg/kg.

One may read the Emax as the maximal effect, on the per cent scale that the assay sets. On to `CC(C)C[C@@H]1NC(=O)[C@H](CCCNC(=N)N)NC(=O)[C@@H](N)CC=CC[C@@H](C(=O)N[C@@H](CCCCN)C(=O)NCC(=O)N2CCC[C@H]2C(=O)N[C@H](Cc2ccc3ccccc3c2)C(=O)O)NC(=O)[C@H](CO)NC1=O` [Compound 43, NH2-c[X-R-L-S-X]c-K-G-P-(D-2Nal)], for which the “agonist character on Gαi1” value at hAPJ receptor [1] was “full agonists”. Moreover, the maximal effect (Emax) on hAPJ receptor [1] (HEK293, Table V, read-out: Gαi1 Emax) was found to be 105%; at hAPJ receptor [2] (Table V, read-out: ß-arr2 Emax), 55%; at hAPJ receptor [2] (read-out: β-arr2 Emax), 55%. The “agonist character on β-arrestin” value at hAPJ receptor [2] is on record as “partial agonists”. Also, the half-life at […] in series [3] (Table I, 37° C., up to 24 h, read-out: Half-life in vitro (converted)) was above 24 h; in series [3] (Table V, read-out: Half-life t1/2) it was above 24 h. Further, the AUC in the series “in vivo” (male Sprague-Dawley rats, i.v. 3 mg/kg) is recorded as 8.80 ± 0.41 min*(mg/mL). Further, in the series “in vivo” (setting [8]), the level at 5 min was determined as 36100 ng/mL. Also, the level at 4 h in “in vivo” (setting [8]) is 8600 ng/mL. Also, the “effect on blood pressure” value in series [4] is on record as “no effect”. In the series on Sprague-Dawley rats (s.c. 0.2 μmol/kg, three hours after injection), the “effect on fractional shortening (FS) and cardiac output (CO)” value is “significant increase in both FS and CO”. Moreover, in the series with Sprague-Dawley rats (s.c. 2 μmol/kg, 6 h), the “CO increase from baseline” value came out at 16%. In the series on Sprague-Dawley rats (s.c. 2 μmol/kg, 6 h), this molecule gave an FS increase of 17%.
For orientation: Ki means the dissociation constant of the complex between target and ligand, obtained from inhibition or displacement. A lower Ki goes with tighter binding. In series [5], Ac-Ape17-Met15Nle (KT03-12) (peptide) showed an EC50 Gαi1 of 2.88 nM. The molecule also gave a Ki in series [6] of 0.15 nM.

B1: Compound 42 (KT04-43) (peptide)
peptide: H-[AllylGly]RLS[AllylGly]KGP[d1Nal]
modifications: staple 1-5
In the case of B1, the “Gαi1 Emax (%)” value in series [7] was determined as 103%. In addition, the Ki in [6] was found to be 0.6 nM.
